{"source": "patent US20260297027A1", "about": "“Non-Peptide Small Molecule FGF14:Nav1.6 Channel Complex Protein-Protein Interaction Modulators” (The Board of Regents of The University of Texas System, priority 2023, published 2026)", "key": {"FGF14": {"molecular_target": "T1, FGF14 (Homo sapiens, UniProt Q92915)", "T1 sequence (Q92915 1-252 isoform Q92915-2)": "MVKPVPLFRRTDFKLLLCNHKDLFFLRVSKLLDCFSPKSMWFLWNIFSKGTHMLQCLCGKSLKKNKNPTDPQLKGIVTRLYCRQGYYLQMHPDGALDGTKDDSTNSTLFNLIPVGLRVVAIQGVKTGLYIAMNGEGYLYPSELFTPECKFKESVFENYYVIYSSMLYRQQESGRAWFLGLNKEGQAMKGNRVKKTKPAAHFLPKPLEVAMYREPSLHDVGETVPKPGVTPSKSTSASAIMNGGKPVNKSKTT", "assay": "Surface plasmon resonance (SPR), FGF14", "assay_type": "binding", "method": "(§1) Secondary bioactivity assays: Surface plasmon resonance (SPR). Analogues were then tested using SPR against FGF14 and Nav1.6-C-terminal tail purified proteins, the gold standard for protein binding studies. SPR experiments were used to quantitatively assess the binding affinity of analogues, serving as both a secondary bioactivity assay to determine accurate binding affinities for protein:ligand interactions via KD, Kon and Koff, as well as to assess the compound's ability to disrupt PPI. The reliability of the model, goodness of fit, and reported kinetic and binding constants were validated by varying flow rates, immobilization densities, or different chips. Statistical analysis was conducted by visually inspecting the goodness of fit of the data from the residuals. Additionally, c2 was used as a global measure for residual noise; standard deviation was used to report errors in measurements by repeating the experiment at least three times.\nFIGS. 2A and 2B summarize selectivity and orthogonal validation of hits from the screening assay. […] Compounds that modulated complex assembly by ≥25% were excluded from further studies. Referring to FIG. 2B, the remaining 5 selective hits were then quantitatively assessed using SPR. Binding sensorgrams are shown for FGF14 (left) and Nav1.6 (middle) and normalized steady-state saturation plots (right) reveal differences in compound:protein binding affinities. Kinetic analysis of each ligand/analyte interaction was obtained by fitting the response data to the simplest Langmuir 1:1 interaction model (KD=koff/kon).\nReferring to FIG. 2B, the remaining 5 selective hits were then quantitatively assessed using SPR. Binding sensorgrams are shown for FGF14 (left) and Nav1.6 (middle) and normalized steady-state saturation plots (right) reveal differences in compound:protein binding affinities. Kinetic analysis of each ligand/analyte interaction was obtained by fitting the response data to the simplest Langmuir 1:1 interaction model (KD=koff/kon)."}, "Nav1.6": {"molecular_target": "T2, Nav1.6 (Homo sapiens, UniProt Q9UQD0)", "T2 construct": "SPR against FGF14 and Nav1.6-C-terminal tail purified proteins", "T2 sequence (Q9UQD0 1767-1912 limits assumed)": "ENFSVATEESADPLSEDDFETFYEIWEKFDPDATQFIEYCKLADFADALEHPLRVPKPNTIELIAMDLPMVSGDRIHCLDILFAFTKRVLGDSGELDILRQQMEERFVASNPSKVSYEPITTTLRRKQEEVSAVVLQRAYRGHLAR", "assay": "Surface plasmon resonance (SPR), Nav1.6-C-terminal tail", "assay_type": "binding", "conditions": "Langmuir 1:1 interaction model (KD=koff/kon)", "method": "as §1\nFIGS. 2A and 2B summarize selectivity and orthogonal validation of hits from the screening assay. […] Compounds that modulated complex assembly by ≥25% were excluded from further studies. Referring to FIG. 2B, the remaining 5 selective hits were then quantitatively assessed using SPR. […]\nReferring to FIG. 2B, the remaining 5 selective hits were then quantitatively assessed using SPR. […]"}, "[1]": {"test_system": "Nav1.6 (cells stably expressing Nav1.6 and FGF14-GFP)", "assay": "Patch-clamp electrophysiology in heterologous cells expressing Nav1.6 and FGF14", "assay_type": "cell-based", "conditions": "1 μM", "method": "(§2) Confirmatory assays: Automated and manual patch-clamp electrophysiology in heterologous cells. Patch-clamp electrophysiology is a rigorous, sophisticated confirmatory and orthogonal assay that serves to assess compound functional activity, mechanism of action, specificity, and selectivity toward various Nav isoforms. It is highly predictive of in vivo efficacy of compounds. In this assay, compounds are tested in cells stably expressing FGF14 and Nav1.6 or other relevant iFGF:Nav channel pairs. Initially screened with an automated planar patch-clamp system, compounds were tested with an 8-point dose-response in 384-well plates with a throughput of >2,000 data sets/week. Compounds were then confirmed with manual patch-clamp at targeted concentrations. A multitude of physiological parameters of Nav channels including Na+ current amplitude, kinetics, voltage-dependence, use-dependency, and time-dependency reflecting the channel closed, opened, and inactivated states were automatically measured using specialized software (i.e., CLAMPEX). Data were typically derived from n=10-20 recordings, N=3 batches of cells. Data were compared using either Student's t-test or two-way ANOVA mixed model.\n(§3) Functional activity of Compound PW01028. To study compound PW01028 functional activity against Nav1.6-encoded currents were studied in heterologous cells stably expressing Nav1.6 and/or FGF14-GFP (FIGURE). […]"}, "[2]": {"test_system": "medium spiny neurons (MSN), Fgf14^−/−", "assay": "Patch-clamp electrophysiology in brain slices, MSN of NAc from Fgf14-/- mice", "assay_type": "cell-based", "conditions": "n=7-8/group, p>0.05, in words", "method": "(§4) Patch-clamp electrophysiology in brain slices. This assay provides a critical confirmatory step from the heterologous cell to the native system. With this assay, selected compounds were tested (typically, 3 concentrations) for their modulatory effects on MSN firing and Na+ currents using current clamp and voltage clamp recordings Parameters of interest included action potential threshold, amplitude, rise time, firing frequency, amplitude of Na+ currents and passive properties (i.e., Rseries, Rinput, Vm). Not only is this assay predictive of a compound's in vivo activity, it provides an assessment of potential toxicity and side effects based on secondary measurements (i.e., frequency, amplitude, and kinetics of synaptic potentials, Rinput, Vm). This assay was also used as the first target validation step in native tissue as compounds are concomitantly tested in neurons from Fgf14^−/− mice. Recordings were conducted from at least N=3 animals, n=10-15 recordings; effect is calculated using ANOVA mixed model.\n(§5) Target validation of compound PW01028 in NAc slices."}, "[3]": {"test_system": "medium spiny neurons (MSN), Fgf14^+/+", "assay": "Patch-clamp electrophysiology in brain slices, MSN of NAc from Fgf14+/+ mice", "assay_type": "cell-based", "conditions": "1 micromolar, in words", "method": "as §4, §5"}, "[4]": {"molecular_target": "T3, Nav1.6 (HEK-Nav1.6 expressing GFP control) (Homo sapiens, UniProt Q9UQD0)", "T3 construct": "patch clamp", "T3 sequence (Q9UQD0 whole entry)": "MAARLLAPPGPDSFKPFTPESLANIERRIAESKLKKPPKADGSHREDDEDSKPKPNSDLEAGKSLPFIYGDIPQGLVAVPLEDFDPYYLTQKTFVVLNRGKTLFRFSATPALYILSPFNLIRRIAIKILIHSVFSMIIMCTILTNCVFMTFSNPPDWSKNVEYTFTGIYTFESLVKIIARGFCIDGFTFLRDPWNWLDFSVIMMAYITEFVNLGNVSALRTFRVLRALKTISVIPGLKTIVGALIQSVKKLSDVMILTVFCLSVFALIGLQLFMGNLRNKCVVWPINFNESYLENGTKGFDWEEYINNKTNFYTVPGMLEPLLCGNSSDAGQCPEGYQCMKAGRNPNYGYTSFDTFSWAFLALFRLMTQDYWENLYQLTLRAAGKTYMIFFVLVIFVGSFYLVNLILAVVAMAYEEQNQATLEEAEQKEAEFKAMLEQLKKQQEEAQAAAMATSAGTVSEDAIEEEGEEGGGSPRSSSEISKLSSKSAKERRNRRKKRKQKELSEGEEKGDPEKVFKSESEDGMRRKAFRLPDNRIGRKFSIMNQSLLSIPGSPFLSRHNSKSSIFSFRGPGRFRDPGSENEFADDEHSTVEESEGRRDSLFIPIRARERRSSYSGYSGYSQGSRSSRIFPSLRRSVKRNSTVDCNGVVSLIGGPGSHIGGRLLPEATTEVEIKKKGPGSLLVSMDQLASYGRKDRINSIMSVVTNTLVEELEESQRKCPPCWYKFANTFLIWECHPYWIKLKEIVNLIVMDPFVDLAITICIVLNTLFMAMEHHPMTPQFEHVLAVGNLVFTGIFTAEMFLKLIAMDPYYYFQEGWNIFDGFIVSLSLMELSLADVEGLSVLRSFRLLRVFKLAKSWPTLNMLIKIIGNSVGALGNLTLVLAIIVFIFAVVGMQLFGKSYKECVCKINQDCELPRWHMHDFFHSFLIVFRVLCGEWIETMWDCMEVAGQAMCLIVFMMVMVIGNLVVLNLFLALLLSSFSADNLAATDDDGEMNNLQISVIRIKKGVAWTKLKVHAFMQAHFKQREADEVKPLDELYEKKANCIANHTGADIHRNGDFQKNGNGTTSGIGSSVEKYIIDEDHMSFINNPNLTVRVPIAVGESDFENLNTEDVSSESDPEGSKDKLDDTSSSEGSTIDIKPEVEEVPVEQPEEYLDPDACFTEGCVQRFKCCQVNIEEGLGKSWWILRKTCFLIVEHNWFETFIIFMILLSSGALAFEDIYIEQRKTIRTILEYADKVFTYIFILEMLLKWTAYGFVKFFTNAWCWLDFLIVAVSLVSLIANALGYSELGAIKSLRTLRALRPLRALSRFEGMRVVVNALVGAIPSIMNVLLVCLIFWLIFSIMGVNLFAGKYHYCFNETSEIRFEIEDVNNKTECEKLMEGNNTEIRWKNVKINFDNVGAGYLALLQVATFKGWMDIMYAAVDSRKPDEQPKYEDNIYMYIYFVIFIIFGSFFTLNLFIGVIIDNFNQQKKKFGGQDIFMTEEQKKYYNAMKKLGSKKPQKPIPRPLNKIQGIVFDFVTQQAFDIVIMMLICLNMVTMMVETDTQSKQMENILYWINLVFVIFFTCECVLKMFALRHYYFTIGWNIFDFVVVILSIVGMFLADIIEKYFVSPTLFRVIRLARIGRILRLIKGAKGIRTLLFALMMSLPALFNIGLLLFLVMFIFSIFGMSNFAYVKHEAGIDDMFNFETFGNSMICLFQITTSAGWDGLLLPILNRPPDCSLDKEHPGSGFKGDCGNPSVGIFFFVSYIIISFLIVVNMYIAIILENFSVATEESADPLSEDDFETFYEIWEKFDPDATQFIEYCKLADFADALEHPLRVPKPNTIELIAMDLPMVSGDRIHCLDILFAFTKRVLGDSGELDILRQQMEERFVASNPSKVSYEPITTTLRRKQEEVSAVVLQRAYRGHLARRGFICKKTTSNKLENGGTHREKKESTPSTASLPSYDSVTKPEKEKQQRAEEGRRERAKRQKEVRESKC", "assay": "Patch-clamp electrophysiology in HEK-Nav1.6 cells expressing the GFP control construct", "assay_type": "cell-based", "conditions": "HEK-Nav1.6 expressing the GFP control construct; in words", "method": "as §2, §3"}, "FGF14:Nav1.6 complex": {"molecular_target": "T4, FGF14:Nav1.6 complex (Homo sapiens, UniProt Q92915+Q9UQD0)", "T4 construct": "split firefly luciferase complementation", "T4 sequence (Q9UQD0 1763-1980 limits assumed, one chain of several)": "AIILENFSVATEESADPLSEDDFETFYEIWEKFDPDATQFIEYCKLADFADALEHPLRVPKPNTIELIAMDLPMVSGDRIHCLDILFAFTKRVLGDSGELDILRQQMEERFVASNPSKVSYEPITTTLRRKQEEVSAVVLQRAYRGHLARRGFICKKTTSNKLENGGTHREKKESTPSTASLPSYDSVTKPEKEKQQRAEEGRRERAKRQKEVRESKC", "assay": "Split-luciferase complementation assay (LCA)", "assay_type": "cell-based", "description": "To identify small molecule probes targeting the FGF14:Nav1.6 PPI interface, the FGF14:Nav1.6 complex was reconstituted using the split-luciferase complementation assay (LCA), and a candidate pool of ~45,000 commercially available compounds was screened. An established screening pipeline was employed to validate hits. […] FIG. 1B summarizes exclusion of compounds based on the CellTiter Blue (CTB) cell viability fluorescence assay.\nPrimary assays: Split-luciferase complementation assay (LCA). The primary assay to detect FGF14:Nav1.6 complex formation in real-time in living cells is the split-luciferase complementation assay (LCA), which has been designed and successfully implemented specifically to study PPI between the Nav channel and iFGFs. With LCA, in-cell reconstitution of the FGF14:Nav1.6 channel complex was detected upon addition of the D-luciferin substrate, as a robust light signal representing the strength of interaction between the two binding partners. […] The high signal-to-noise ratio, favorable dynamic range, and reversibility of luminescence-based signals make LCA the ideal for HTS of potential regulators, as well as rapid dose-dependency studies (≥8 concentrations) to help guide subsequent in-depth hit validation using more labor-intensive approaches. […]"}}, "note": "“Also recorded” adds a separate entry of the source."}
{"molecule": "Cc1cccc(NC(=O)Cn2cc(CO)c3ccccc32)c1", "note": "[Compound 7605086, 2-(3-(Hydroxymethyl)-1H-indol-1-yl)-N-(m-tolyl)acetamide]", "values": [{"measurement": "Kd", "setting": "FGF14; Langmuir 1:1 interaction model (KD=koff/kon)", "value": 2900, "unit": "nM"}, {"measurement": "Kd", "setting": "Nav1.6", "value": 13600, "unit": "nM"}]}
{"molecule": "CCOC(=O)c1cccc(NC(=O)Cn2cc(CO)c3ccccc32)c1", "note": "[PW01028, Ethyl 3-(2-(3-(hydroxymethyl)-1H-indol-1-yl)acetamido)benzoate]", "values": [{"measurement": "binding affinity to FGF14", "setting": "FGF14; in words", "value": "nanomolar binding affinity"}, {"measurement": "ligand binding to the FGF14 R117 residue", "setting": "FGF14; in words", "value": "evidence for ligand binding to the FGF14^R117 residue"}, {"measurement": "depolarizing shift in the voltage-dependence of steady-state inactivation of the transient Na+ current", "setting": "[1]; FGF14-mediated regulatory effects on Nav1.6", "value": "+15 mV"}, {"measurement": "effect on voltage-dependence (V1/2) of steady-state inactivation", "setting": "[1]; in words, n=6-10 cells/group", "value": "markedly shifted V1/2 and steady-state inactivation to a more depolarized potential; also recorded: shifts voltage-dependence of steady-state inactivation of Na+ currents"}, {"measurement": "effect on MSN firing / Na+ currents", "setting": "[2]", "value": "inactive in MSN from Fgf14^−/− mice; also recorded: Lack of effect; also recorded: absent in Fgf14^−/− mice"}, {"measurement": "effect on Nav channel closure / Na+ currents in MSN", "setting": "[3]; Fgf14+/+ (wild-type) mice", "value": "potentiated MSN firing and transient Na^+ currents (INaP); also recorded: hampered Nav channel closure, prolonged Na+ currents"}, {"measurement": "effect on MSN firing", "setting": "[3]; Fgf14+/+ mice, n=19-20/group, p<0.0001", "value": "potentiated MSN firing; also recorded: increases firing in MSN; also recorded: potentiated intrinsic firing"}, {"measurement": "functional effects", "setting": "[4]", "value": "no functional effects"}, {"measurement": "IC50", "setting": "FGF14:Nav1.6 complex; LCA, read-out: IC50 for modulation of FGF14:Nav1.6 complex formation", "value": "~250", "unit": "nM"}, {"measurement": "potency in the LCA dose-response studies", "setting": "FGF14:Nav1.6 complex; dose-response, in words", "value": "nanomolar potency"}]}
